Results published in US7863307B2, “Process for synthesizing a CETP inhibitor” (priority 2005, dated 2011).
Entries after “also recorded” stand apart in the source; their conditions may differ.

Experiments:
Type in all cases: physicochemical
[1] = solubility in water / aqueous environments
[2] = solid-form stability on standing (conversion to other forms); conditions: crystalline non-solvate form
[3] = hygroscopicity of the crystalline non-solvate form in humid or dry air

- solubility in water [1]: very poorly soluble in water
- hygroscopicity [3]: non-hygroscopic
Compound: COc1cc(F)c(C(C)C)cc1-c1ccc(C(F)(F)F)cc1CN1C(=O)O[C@H](c2cc(C(F)(F)F)cc(C(F)(F)F)c2)[C@@H]1C [compound 12, (4S,5R)-5-[3,5-bis(trifluoromethyl)phenyl]-3-{[4′-fluoro-5′-isopropyl-2′-methoxy-4-(trifluoromethyl)biphenyl-2-yl]methyl}-4-methyl-1,3-oxazolidin-2-one]
- conversion of crystal form on standing ([2]; elevated temperatures): converts more rapidly to the amorphous form at elevated temperatures
- conversion of crystal form on standing ([2]; room temperature): slowly converts to the amorphous form on standing for long periods of time; also recorded: stable at room temperature for moderate periods of time with respect to changing to the amorphous form
- hydrate formation [3]: does not convert to a hydrate in humid or dry air
